The target of the assay is T1, BRD4 bromodomains (Homo sapiens, UniProt O60885).
T1 construct: fused on or other part: T7 phage capsid protein (fusion for phage display)
The assay is described as follows: BROMOscan bromodomain binding assay. Conditions: Kd classes; BRD4 bromodomains displayed on T7 phage, competition with acetylated peptide ligand, 11 concentrations 0 to 10 μM; read-out: BROMOscan Relative Activity. As to the method:
Bromodomain assays were conducted to measure interactions between certain compounds and bromodomains. In order to measure compounds' direct activity against BRD4, dissociation constants ([…]) of the bromodomain inhibitors of the present invention were obtained using a biophysical binding assay, BROMOscan℠ (DiscoveRx, San Diego, Calif.), a modified phage-display system originally developed for kinases (Nat Biotechnol. 2005 March; 23(3):329-36).
The assays were conducted according to BROMOscan protocol from Discover Rx. Briefly, BRD4 bromodomains expressed as a fusion capsid protein of T7 phage were bound to acetylated peptide ligand on a solid phase and competition bindings were performed. T7 phage strains displaying bromodomains were grown in parallel in 24-well blocks in an E. coli host derived from the BL21 strain. E. coli were grown to log-phase and infected with T7 phage from a frozen stock (multiplicity of infection=0.4) and incubated with shaking at 32° C. until lysis (90-150 minutes). The lysates were centrifuged (5,000×g) and filtered (0.2 μm) to remove cell debris. Streptavidin-coated magnetic beads were treated with biotinylated small molecule or acetylated peptide ligands for 30 minutes at room temperature to generate affinity resins for bromodomain assays. The liganded beads were blocked with excess biotin and washed with blocking buffer (SeaBlock (Pierce), 1% BSA, 0.05% Tween 20, 1 mM DTT) to remove unbound ligand and to reduce non-specific phage binding. Binding reactions were assembled by combining bromodomains, liganded affinity beads, and test compounds in 1× binding buffer (17% SeaBlock, 0.33×PBS, 0.04% Tween 20, 0.02% BSA, 0.004% Sodium azide, 7.4 mM DTT). Test compounds were prepared as 1000× stocks in 100% DMSO and subsequently diluted 1:10 in monoethylene glycol (MEG) to create stocks at 100× the screening concentration (resulting stock solution is 10% DMSO/90% MEG). The compounds were then diluted directly into the assays such that the final concentration of DMSO and MEG were 0.1% and 0.9%, respectively. All reactions were performed in polystyrene 96-well plates in a final volume of 0.135 ml. The assay plates were incubated at room temperature with shaking for 1 hour and the affinity beads were washed with wash buffer (1×PBS, 0.05% Tween 20). The beads were then re-suspended in elution buffer (1×PBS, 0.05% Tween 20, 2 μM non-biotinylated affinity ligand) and incubated at room temperature with shaking for 30 minutes. The bromodomain concentration in the eluates was measured by qPCR. Data was collected at 11 compound concentrations ranging from 0 to 10 μM. Kd values were then derived from a standard dose-response curve generated with Hill equation (Hill Slope was set to −1) and a non-linear least square fit with the Levenberg-Marquardt algorithm.
Response=Background+Signal−Background/1+(Kd Hill Slope/Dose Hill Slope)
Data is reported in Table 3 as Relative Activity, wherein a Kd of less than 100 nM is denoted by (+++), a Kd of between 100 nM and 1 μM is denoted by (++), and a Kd of 1 μM to greater than 10 μM is denoted by (+).

Each structure is given as a SMILES string. pKd: −log10 of the molar value.

For `Cc1noc(C)c1-c1cc2[nH]c(=O)cc(NCc3ccccc3)c2cc1-c1c(C)noc1C` [Example 162, 4-(benzylamino)-6,7-bis(3,5-dimethylisoxazol-4-yl)quinolin-2(1H)-one], the pKd is greater than 7.00.
As for `Cc1noc(C)c1-c1ccc2[nH]c(=O)cc(NCc3ccc(Cl)cc3Cl)c2c1` [Example 128], the pKd was 6.00 to 7.00.
`Cc1noc(C)c1-c1cc2[nH]c(=O)c(C)c(NNc3ccccc3Cl)c2cc1-c1c(C)noc1C` [Example 60]: the pKd was greater than 7.00.
With `Cc1noc(C)c1-c1ccc2[nH]c(=O)cc(NCc3ccc(Cl)cc3)c2c1` [Example 132] the figure was 6.00 to 7.00; with `COc1ncccc1-c1ccc2[nH]c(=O)cc(NCc3cccc(Cl)c3)c2c1` [Example 165, 4-(3-chlorobenzylamino)-6-(2-methoxypyridin-3-yl)quinolin-2(1H)-one], less than 6.00.
To `Cc1noc(C)c1-c1ccc2[nH]c(=O)cc(NCc3cccc(C(F)(F)F)c3)c2c1` [Example 120] belongs 6.00 to 7.00.
Consider `COc1ccccc1CNc1cc(=O)[nH]c2ccc(-c3c(C)noc3C)cc12` [Example 171], for which the pKd was greater than 7.00.
In the case of `Cc1noc(C)c1-c1ccc2[nH]c(=O)cc(NN(C)c3ccccc3)c2c1` [Example 5, 6-(3,5-dimethylisoxazol-4-yl)-4-(2-methyl-2-phenylhydrazinyl)-quinolin-2(1H)-one], the pKd was greater than 7.00.
With `COc1cncc(-c2ccc3[nH]c(=O)cc(NCc4cccc(Cl)c4)c3c2)c1` [Example 164, 4-(3-chlorobenzylamino)-6-(5-methoxypyridin-3-yl)quinolin-2(1H)-one], the pKd is greater than 7.00.
To `CC(=O)N(Nc1cc(=O)[nH]c2ccc(-c3c(C)noc3C)cc12)c1ccccc1` [Example 7] belongs greater than 7.00.
With `O=c1cc(NCc2cccc(Cl)c2)c2cc(-c3ccncc3)ccc2[nH]1` [Example 166] the figure was greater than 7.00.
For `Cn1cc(-c2ccc3[nH]c(=O)cc(NCc4cccc(Cl)c4)c3c2)cn1` [Example 167, 4-(3-chlorobenzylamino)-6-(1-methyl-1H-pyrazol-4-yl)quinolin-2(1H)-one], the pKd was greater than 7.00.
With `Cc1noc(C)c1-c1ccc2[nH]c(=O)cc(NCc3cccnc3)c2c1` [Example 175] the figure was 6.00 to 7.00; with `Cc1noc(C)c1-c1ccc2[nH]c(=O)cc(NCc3cccc(Cl)c3)c2c1` [Example 108], greater than 7.00; with `Cc1noc(C)c1-c1ccc2[nH]c(=O)cc(NCc3ccccc3F)c2c1` [Example 172], greater than 7.00.
With `Cc1noc(C)c1-c1ccc2[nH]c(=O)cc(NCc3ccc(-c4ccccc4)cc3)c2c1` [Example 140] the figure was 6.00 to 7.00; with `Cc1noc(C)c1-c1ccc2[nH]c(=O)cc(NN3CCc4ccccc4C3)c2c1` [Example 1], greater than 7.00.
With `Cc1noc(C)c1-c1ccc2[nH]c(=O)cc(NCc3cc(Cl)cc(Cl)c3)c2c1` [Example 124] the figure was 6.00 to 7.00; with `Cc1noc(C)c1-c1ccc2[nH]c(=O)cc(N[C@H](C)c3ccccc3)c2c1` [Example 173], greater than 7.00.
For `O=c1cc(NCc2cccc(Cl)c2)c2cc(-c3cccnc3)ccc2[nH]1` [Example 163, 4-(3-chlorobenzylamino)-6-(pyridin-3-yl)quinolin-2(1H)-one], the pKd was greater than 7.00.
With `Cc1noc(C)c1-c1ccc2[nH]c(=O)cc(NCc3cccc(Br)c3)c2c1` [Example 112] the figure was greater than 7.00.
With `Cc1noc(C)c1-c1ccc2[nH]c(=O)cc(NCC3CCCCC3)c2c1` [Example 144] the figure was 6.00 to 7.00.
With `Cc1noc(C)c1-c1cc2c(NCc3ccccc3)cc(=O)[nH]c2cc1C(N)=O` [Example 161, 4-(benzylamino)-6-(3,5-dimethylisoxazol-4-yl)-2-oxo-1,2-dihydroquinoline-7-carboxamide] the figure was greater than 7.00.
With `Cc1noc(C)c1-c1cc2c(NCc3ccccc3)cc(=O)[nH]c2cc1C(=O)N(C)C` [Example 160, 4-(benzylamino)-6-(3,5-dimethylisoxazol-4-yl)-N,N-dimethyl-2-oxo-1,2-dihydroquinoline-7-carboxamide], the pKd was greater than 7.00.
Take `Cc1noc(C)c1-c1ccc2[nH]c(=O)cc(NCc3ccccc3)c2c1` [Example 170, 4-(benzylamino)-6-(3,5-dimethylisoxazol-4-yl)quinolin-2(1H)-one]: the pKd was greater than 7.00.
With `COc1cccc(CNc2cc(=O)[nH]c3ccc(-c4c(C)noc4C)cc23)c1` [Example 116] the figure was greater than 7.00.
With `Cc1noc(C)c1-c1ccc2[nH]c(=O)cc(NN(CC(=O)O)c3ccccc3)c2c1` [Example 6] the figure was greater than 7.00.

For the origin of these results see patent US20190092761A1, “Methods and Compositions for Inhibition of Bromodomain and Extratermial Proteins” (Convergene LLC, priority 2014, published 2019).
